Measurements reported in patent publication US20260240794A1 (priority 2023, published 2026).
Like-named read-outs stand apart in the source and are kept apart here.

Key:
[1] = system: β-arrestin pathway; test: Block of the β-arrestin pathway; conditions: FIG. 13
[2] = molecular target: T1, β2-adrenergic receptor (Mus musculus, UniProt P18762); test: β-adrenergic receptor density by radioligand binding (ICYP) in lung membranes of treated asthmatic mice; conditions: for Kd: KD of radioligand ICYP in lung membranes, not of the drug, read-out: Apparent KD (in parentheses) (converted); for Bmax (receptor density): lung membranes
T1 construct: rows headed: Apparent KD (in parentheses); other: 15 Minutes of drug treatment; KD of radioligand ICYP in lung membranes, not of the; Bmax (receptor density); lung membranes; Apparent KD (in parentheses); other: 28 Days of drug treatment; KD of radioligand ICYP in lung membranes, not of the dr
T1 sequence (P18762 whole entry): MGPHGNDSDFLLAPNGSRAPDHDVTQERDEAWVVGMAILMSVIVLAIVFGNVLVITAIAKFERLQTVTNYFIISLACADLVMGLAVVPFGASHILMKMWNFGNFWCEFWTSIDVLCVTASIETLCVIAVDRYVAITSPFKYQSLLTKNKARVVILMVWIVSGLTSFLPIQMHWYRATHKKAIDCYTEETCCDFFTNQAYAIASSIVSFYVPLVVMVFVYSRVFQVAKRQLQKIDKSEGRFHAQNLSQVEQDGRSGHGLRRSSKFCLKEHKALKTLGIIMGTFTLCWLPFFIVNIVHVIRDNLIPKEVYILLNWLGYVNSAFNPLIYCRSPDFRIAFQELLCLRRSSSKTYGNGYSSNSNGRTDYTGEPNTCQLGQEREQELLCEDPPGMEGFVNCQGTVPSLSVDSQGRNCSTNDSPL

[3] = system: mucous metaplasia; test: Mucous metaplasia in sensitized/challenged mice (photomicrographs); format: in vivo; conditions: sensitized/challenged mice after treatment
Source text: FIG. 9 is a photomicrograph showing the occurrence of a mucus plug in the bronchus of a child with fatal asthma.

[4] = system: asthmatic mice (ovalbumin-sensitized and ovalbumin-challenged); format: in vivo, Balb/cJ mice; conditions: chronic treatment 7 days, 20 mg/kg (metoprolol 3x daily s.c., timolol in chow), versus historical controls
[5] = Pharmacokinetics of inhaled and oral airway drugs (literature); format: in vivo, humans; conditions: 6 children with asthma versus 11 healthy adults
[6] = cited from earlier work
[7] = system: Phospholipase C (PLC-β1); test: Ratio of phospholipase C to actin by immunoblotting in cultured tracheal smooth muscle cells; format: cell-based; conditions: cells from asthmatic mice, chronic nadolol high dose treatment
Source text: Cultured tracheal smooth muscle cells were obtained from mice exposed to the following treatments: NS/NC=nonasthmatic, non-challenged mice; S/C=asthmatic mice; Sal.Ac=asthmatic mice, acute salbutamol treatment; Sal.Ch=asthmatic mice, chronic salbutamol treatment; Nad.Ac=asthmatic mice, acute nadolol high dose treatment; and Nad.Ch=asthmatic mice, chronic nadolol high dose treatment.
After airway function experiments, the tracheas were surgically removed from anesthetized mice that had been treated with drugs or vehicle. The tracheas were minced and the cells plated and grown in culture. The smooth muscle cells grow faster and take over the culture dish. The cells were grown in medium which contained the drugs used in the treatment or vehicle controls. Phospholipase C (PLC-(β1) was determined by immunoblotting with an antibody specific for the enzyme. Actin was used as a loading control and the amount of PLC-β1 was expressed as a ratio of phospholipase C to actin.

[8] = system: cAMP accumulation; test: cAMP accumulation
[9] = cited from earlier work; remark: listed apart in the source
[10] = system: mucin 5AC; test: Level of mucin 5AC in smokers, nadolol versus placebo; format: in vivo, human; conditions: P<0.05

Compound	block of the β-arrestin pathway [1]	Kd ([2]; 15 Minutes of drug treatment)	Kd ([2]; 28 Days of drug treatment)	Bmax (receptor density) ([2]; 28 Days of drug treatment)	also measured
C=CCc1ccccc1OCC(O)CNC(C)C (stereo not drawn) [alprenolol]	did not block the β-arrestin pathway	0.454 nM	0.291 nM	179.2 ± 53.05 femtomoles of sites per milligram of protein	mucous metaplasia [3]: no improvement in mucous metaplasia
COCCc1ccc(OCC(O)CNC(C)C)cc1 (stereo not drawn) [metoprolol]					airway hyperresponsiveness (Raw) [4]: effective in reducing airway hyperresponsiveness
CC(C)(C)NCC(O)c1ccc(O)c(CO)c1 (stereo not drawn) [salbutamol]				97.0 ± 23.02 femtomoles of sites per milligram of protein	
COc1ccccc1OCCNCC(O)COc1cccc2[nH]c3ccccc3c12 (stereo not drawn) [carvedilol]	did not block the β-arrestin pathway	0.565 nM	1.44 nM	904.1 ± 43.46 femtomoles of sites per milligram of protein	
CC(C)NCC(O)COc1cccc2ccccc12 (stereo not drawn) [propranolol]	did not block the β-arrestin pathway				
CCCC1O[C@@H]2C[C@H]3[C@@H]4CCC5=CC(=O)C=C[C@]5(C)[C@H]4[C@@H](O)C[C@]3(C)[C@]2(C(=O)CO)O1 (stereo partly drawn) [budesonide]					plasma clearance of the two enantiomers per kilogram of bodyweight, excess in children over adults [5]: about 50%; elimination half-life ([6]; in vivo): 2.8 ± 1.1 h; plasma clearance ([6]; in vivo): 84 ± 27 L/h
CC(C)(C)NC[C@H](O)COc1nsnc1N1CCOCC1 [timolol]					airway hyperresponsiveness (Raw) [4]: effective in reducing airway hyperresponsiveness
CC(C)(C)NCC(O)c1cc(O)cc(O)c1 (stereo not drawn) [terbutaline]					bioavailability with the oral component (swallowed fraction of the dose) added ([6]; from an MDI): 16.5%; mean pulmonary bioavailability ([6]; from an MDI): 9.1%
CC(C)(C)NCC(O)COc1cccc2c1CC(O)C(O)C2 (stereo not drawn) [nadolol]	blocks this pathway	0.695 nM	1.59 nM	785.5 ± 154.8 femtomoles of sites per milligram of protein	ratio of phospholipase C (PLC-β1) to actin [7]: significantly decreases the activity of phospholipase C; cAMP accumulation [8]: not associated with cAMP accumulation; lipid solubility [9]: low lipid solubility; level of mucin 5AC [10]: reduces the accumulation of the mucus-associated protein mucin 5AC; mucous metaplasia [3]: nearly complete elimination of mucous metaplasia
